# Source: patent US20230099441A1, “HETEROCYCLIC COMPOUND, APPLICATION THEREOF, AND COMPOSITION CONTAINING SAME” (GenEros Biopharma Ltd., priority 2019, published 2023)
# Test system: STAT5 Y694 phosphorylation
# Assay: HTRF experiment: STAT5 Y694 phosphorylation in Hela cells stimulated with human interferon beta
# Assay type: cell-based
# Settings: 2 hours pretreatment, 10 nM human interferon beta 30 minutes
# Protocol: Example of Effect 3: HTRF Experiment
# Human Interferon 3 (IFN-0) (GenScript, Cat #P01574), STAT5 Y694 phosphorylation detection kit (STAT5 phospho-Y694 kit) (Cisbio; Cat #64AT5PEG).
# Hela cells (ATCC American Standard Culture Center, CCL-2) were cultured in a 96-well plate at a density of 3×10^4 cells/well with DMEM medium containing 5% fetal bovine serum and maintained at 37° C. in a humidified incubator with 5% carbon dioxide overnight. On the second day, the original DMEM medium in the 96-well plate was sucked dry, and an equal volume of medium containing different concentrations of compounds (the mother liquor of the compound prepared by dimethyl sulfoxide was diluted in the medium at the required concentration) was added for pretreatment for 2 hours, and then it was placed in an incubator at 37° C. Then human interferon beta with a final concentration of 10 nM was added to stimulate, and it was gently shaken to mix well and then placed in an incubator at 37° C. for 30 minutes.
# The medium was removed, an appropriate volume of PBS was added to wash, and then it was sucked dry. Then 40 microliters of 1× Lysis Buffer was added to each well and it was stood for 30 minutes at room temperature (1 ml 1× lysate preparation: 740 μl ddH2O was added to 250 μl 4× lysate and 10 μl Blocking reagent and it was mixed thoroughly). After 30 minutes, the cells were repeatedly blown until the lysis solution was not viscous (avoiding blowing out bubbles) to achieve sufficient lysis.
# After overnight incubation, the signals of 665 nm and 620 nm were detected in a multifunctional microplate reader. The calculation formula for the detection of STAT5 Y694 phosphorylation is: Ratio=[(signal 665 nm)/(signal 620 nm)]×10^4. Treatment with dimethyl sulfoxide alone was the baseline control (Ratiobase), and the human interferon β stimulation without addition of the compound was the STAT5 Y694 full phosphorylation activation control (Ratiostimulation), the inhibition rate of STAT5 Y694 phosphorylation of different samples was normalized: Inhibition rate=[1−(RatioExperiment−Ratiobase)/(Ratiostimulation−Ratiobase)]*100.
row,SMILES,Example of Effect 3: Inhibiting Ratio@10 μM (HTRF Experiment)
1,"O=C(Cc1ccc(C(F)(F)F)cc1)N1CCC(Nc2ccccc2O)CC1 [GEN1-056, 1-(4-((2-hydroxyphenyl)amino)piperidin-1-yl)-2-(4-(trifluoromethyl)phenyl)ethenone]",13.93%
2,"O=C(Cc1ccc(C(F)(F)F)cc1)NCCn1c(=O)[nH]c2ccccc21 [GEN1-062, N-(2-(2-oxo-2,3-dihydro-1H-benzo[d]imidazol-1-yl)ethyl)-2-(4-(trifluoromethyl)phenyl)acetamide]",5.12%
3,"O=C(Cc1ccc2[nH]ccc2c1)N1CCC(n2c(=O)[nH]c3ccccc32)CC1 [GEN1-077, 3-[1-[2-(1H-indol-5-yl)acetyl]-4-piperidinyl]-1H-benzimidazol-2-one]",34.25%
4,CS(=O)(=O)Nc1ccc(CC(=O)N2CCC(n3c(=O)[nH]c4ccccc43)CC2)cc1 [GEN1-110],−10.49%
5,O=C(Cc1ccc(C(F)(F)F)cc1)N1CCC(N2CC(=S)Nc3ccccc32)CC1 [GEN1-133],31.27%
6,"O=C1CN(C2CCN(C(=O)Cc3ccc(C(F)(F)F)cc3)CC2)c2ccc(C(F)(F)F)cc2N1 [GEN1-135, 7-(trifluoromethyl)-4-(1-(2-(4-(trifluoromethyl)phenyl)acetyl)piperidin-4-yl)-3,4-dihydroquinoxaline-2(1H)-one]",22.91%
7,"O=C(Cc1ccc(C(F)(F)F)cc1)N1CCC(c2c(Br)[nH]c3ccccc23)CC1 [GEN1-139, 1-(4-(2-bromo-1H-indol-3-yl)piperidin-1-yl)-2-(4-(trifluoromethyl)phenyl)ethenone]",18.43%
8,"O=C1Nc2ccccc2C2(CCN(C(=O)Cc3ccc(C(F)(F)F)cc3)CC2)O1 [GEN1-178, 1′-(2-(4-(trifluoromethyl)phenyl)acetyl)spiro[benzo[d][1,3]oxazine-4,4′-piperidine]-2(1H)-one]",8.67%
9,"O=C1Nc2ccccc2C2(CCN(C(=O)Cc3ccc(C(F)(F)F)cc3)CC2)N1 [GEN1-179, 1-(2-(4-(trifluoromethyl)phenyl)acetyl)-1′H-spiro[piperidin-4,4′-quinazoline]-2′(3′H)-one]",10.11%

# Test system: STAT5 Y694 phosphorylation
# Assay: Protein electrophoresis and blotting of STAT5 Y694 phosphorylation in Jurkat cells stimulated with human interferon beta
# Assay type: cell-based
# Settings: observed pSTAT5 bands at 10 μM and 100 μM
# In short: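 Serum-free Jurkat cells pretreated with compound 1 h, then stimulated with 20 ng/ml human interferon beta for 30 min at 37° C. pSTAT5 measured by western blot with chemiluminescence, normalized to GAPDH and expressed as percent of DMSO control.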
row,SMILES,Example of Effect 1: Inhibiting Ability (Protein Electrophoresis and Blotting)
1,"O=C(Cn1c(=O)[nH]c2ccccc21)N1CCC(O)(c2ccc(C(F)(F)F)cc2)CC1 [GEN1-085, 1-(2-(4-hydroxy-4-(4-(trifluoromethyl)phenyl)piperidin-1-yl)-2-oxoethyl)-1H-benzo[d]imidazol-2(3H)-one]",−
2,"O=c1c2ccc(-n3c(=O)[nH]c4ccccc43)cc2ccn1-c1ccc(C(F)(F)F)cc1 [GEN1-086, 6-(2-oxo-2,3-dihydro-1H-benzo[d]imidazol-1-yl)-2-(4-(trifluoromethyl)phenyl)isoquinoline-1(2H)-one]",−
3,"CC(C)(C)c1ccc2[nH]c(=O)n(C3CCN(C(=O)Cc4ccc(C(F)(F)F)cc4)CC3)c2c1 [GEN1-088, 6-(tert-butyl)-1-(1-(2-(4-(trifluoromethyl)phenyl)acetyl)piperidin-4-yl)-1H-benzo[d]imidazol-2(3H)-one]",+
4,"O=C(Cc1ccc(C(F)(F)F)cc1)N1CCC(n2c(=O)[nH]c3ccc(-c4ccccc4)cc32)CC1 [GEN1-090, 6-phenyl-1-(1-(2-(4-(trifluoromethyl)phenyl)acetyl)piperidin-4-yl)-1H-benzo[d]imidazol-2(3H)-one]",+
5,"NS(=O)(=O)c1cccc2[nH]c(=O)n(C3CCN(C(=O)Cc4ccc(C(F)(F)F)cc4)CC3)c12 [GEN1-094, 2-oxo-3-(1-(2-(4-(trifluoromethyl)phenyl)acetyl)piperidin-4-yl)-2,3-dihydro-1H-benzo[d]imidazol-4-sulfonamide]",+
6,"NC(=O)c1cccc2[nH]c(=O)n(C3CCN(C(=O)Cc4ccc(C(F)(F)F)cc4)CC3)c12 [GEN1-095, 2-oxo-3-(1-(2-(4-(trifluoromethyl)phenyl)acetyl)piperidin-4-yl)-2,3-dihydro-1H-benzo[d]imidazol-4-carboxamide]",−
7,"O=C(Cc1ccc2c(c1)OCO2)N1CCC(n2c(=O)[nH]c3ccccc32)CC1 [GEN1-096, 1-(1-(2-(benzo[d][1,3]dioxol-5-yl)acetyl)piperidin-4-yl)-1H-benzo[d]imidazol-2(3H)-one]",+
8,"CN(C)c1ccc(CC(=O)N2CCC(n3c(=O)[nH]c4ccccc43)CC2)cc1 [GEN1-097, 1-(1-(2-(4-(dimethylamino)phenyl)acetyl)piperidin-4-yl)-1H-benzo[d]imidazol-2(3H)-one]",+
9,"O=C(CC12CC3CC(CC(C3)C1)C2)N1CCC(n2c(=O)[nH]c3ccccc32)CC1 [GEN1-098, 1-(1-(2-(adamantan-1-yl)acetyl)piperidin-4-yl)-1H-benzo[d]imidazol-2(3H)-one]",+
10,"O=C1CN(C2CCN(C(=O)Cc3ccc(C(F)(F)F)cc3)CC2)c2c(cccc2[N+](=O)[O-])N1 [GEN1-101, 5-nitro-4-(1-(2-(4-(trifluoromethyl)phenyl)acetyl)piperidin-4-yl)-3,4-dihydroquinoxaline-2(1H)-one]",+
11,"O=C1CCN(C2CCN(C(=O)Cc3ccc(C(F)(F)F)cc3)CC2)c2ccccc2N1 [GEN1-102, 5-(1-(2-(4-(trifluoromethyl)phenyl)acetyl)piperidin-4-yl)-4,5-dihydro-1H-benzo[b][1,4]diazepine-2(3H)-one]",+
12,"CC(C)(C)c1ccc(CC(=O)N2CCC(n3c(=O)[nH]c4cccc(C(F)(F)F)c43)CC2)cc1 [GEN1-115, 1-(1-(2-(4-(tert-butyl)phenyl)acetyl)piperidin-4-yl)-7-(trifluoromethyl)-1^1H-benzo[d]imidazol-2(3H)-one]",+
13,"O=C1CN(C2CCN(C(=O)Cc3ccc4ncccc4c3)CC2)c2ccccc2N1 [GEN1-120, 4-(1-(2-(quinolin-6-yl)acetyl)piperidin-4-yl)-3,4-dihydroquinoxaline-2(1H)-one]",−
14,"CC(C)(C)c1ccc(CC(=O)N2CCC(N3CC(=O)Nc4ccccc43)CC2)cc1 [GEN1-122, 4-(1-(2-(4-(tert-butyl)phenyl)acetyl)piperidin-4-yl)-3,4-dihydroquinoxaline-2(1H)-one]",+
15,"O=C(Cc1ccc(C(F)(F)F)cc1)N1CCC(n2c(=O)c(=O)[nH]c3ccccc32)CC1 [GEN1-127, 1-(1-(2-(4-(trifluoromethyl)phenyl)acetyl)piperidin-4-yl)-1,4-dihydroquinoxaline-2,3-dione]",+
16,"O=C(N1CCC(n2c(=O)[nH]c3cccc(C(F)(F)F)c32)CC1)C1(c2ccc(C(F)(F)F)cc2)CC1 [GEN1-146, 7-(trifluoromethyl)-1-(1-(1-(4-(trifluoromethyl)phenyl)cyclopropane-1-carbonyl)piperidin-4-yl)-1,3-dihydro-2H-benzo[d]imidazol-2-one]",+
17,"O=C(Cc1ccc(C(F)(F)F)cc1)N1CCC(N2C/C(=N\O)Nc3ccccc32)CC1 [GEN1-150, (E)-1-(4-(3-(hydroxyimino)-3,4-dihydroquinoxaline-1(2H)-yl)piperidin-1-yl)-2-(4-(trifluoromethyl)phenyl)ethane-1-one]",−
18,"O=C(Nc1ccccn1)NC1CCN(C(=O)Cc2ccc(C(F)(F)F)cc2)CC1 [GEN1-163, 1-(pyridin-2-yl)-3-(1-(2-(4-(trifluoromethyl)phenyl)acetyl)piperidin-4-yl)urea]",−
19,"NC(=O)N(c1ccccn1)C1CCN(C(=O)Cc2ccc(C(F)(F)F)cc2)CC1 [GEN1-164, 1-(pyridin-2-yl)-1-(1-(2-(4-(trifluoromethyl)phenyl)acetyl)piperidin-4-yl)urea]",−
20,"CC(=O)N1CCN(C2CCN(C(=O)Cc3ccc(C(F)(F)F)cc3)CC2)c2ccccc21 [GEN1-243, 1-(4-(4-acetyl-3,4-dihydroquinoxaline-1(2H)-yl)piperidin-1-yl)-2-(4-(trifluoromethyl)phenyl)ethenone]",+
